Results published in ChEMBL document CHEMBL4177627, “Discovery and evaluation of Cav3.1-selective T-type calcium channel blockers” (Bioorg Med Chem Lett, 2017).
In brackets after ≈: the same amount, converted by molar mass.

Legend:
[1] = Solubility of the compound in aqueous medium at pH 7; type: physicochemical
[2] = Intrinsic clearance in rat liver microsomes assessed per mg protein; type: ADME, microsome; settings: read-out: CLH
[3] = Plasma concentration in Wistar rat at 100 mg/kg, po measured after 1 hr; type: ADME, organism-based
[4] = Unbound plasma concentration in Wistar rat at 100 mg/kg, po measured after 1 hr; type: ADME, organism-based; settings: in vivo
[5] = Drug level in Wistar rat brain at 100 mg/kg, po measured after 1 hr; type: ADME, organism-based; settings: read-out: Drug uptake

**Q.** With `CCN(CC)CCc1c(C(=O)NCc2ccccc2OCC(F)(F)F)nn(-c2ccccc2)c1-c1ccccc1` as the compound, how does the solubility ([1]; buffer) read?
**A.** Its solubility is “Soluble”.

**Q.** With `O=C(NCc1ccccc1OCC(F)(F)F)c1nn(-c2ccccc2)c(-c2ccccc2)c1CCNC1CC1` as the compound, how does the solubility ([1]; buffer) read?
**A.** The solubility was “Soluble”.

**Q.** For `CCNCCc1c(C(=O)NCc2ccccc2OCC(F)(F)F)nn(-c2ccccc2)c1-c1ccccc1`, which solubility ([1]; aqueous medium, read-out: solubility) is on record?
**A.** Its solubility is 429 µg/mL (≈ 821 µM).

**Q.** And the microsomal CLint [2]?
**A.** The microsomal CLint was 377 µL/min/mg.

**Q.** And the concentration at 1 h [3]?
**A.** Its concentration at 1 h is 810 nM.

**Q.** And the “Cp(f)” value [4]?
**A.** The value was 4.9 nM.

**Q.** And the concentration at 1 h [5]?
**A.** Its concentration at 1 h is 80 nM.
